Legend:
AMPK = assay: Characterization of AMPK activation by Western blot in PC-3 and LNCaP cells (Dorsomorphin, siRNA); assay type: cell-based, human
Method: To further confirm the compound 8c-induced activation of AMPK, PC-3 and LNCaP cells were incubated with the compound for 1 h and 24 hours in the presence of the AMPK inhibitor Dorsomorphin. […] Accordingly, ACC phosphorylation was increased at 1 h and 24 h and prevented by Dorsomorphin in both cell lines. AMPK inhibits mTORC1 through phosphorylation of Raptor on two well-conserved serine residues (ser722 and ser792) inducing cell-cycle arrest in response to an energy stress. To further support the 8c-induced AMPK activation, we determined Raptor phosphorylation on Ser792 in prostate cells.
Figure 5 AMPK activation by compound 8c in prostate cancer cells. (A) PC-3 and LNCaP cells were treated with vehicle, 25 µM compound 8c, 25 µM compound 8c + 5 μM Dorsomorphin (8c + D) or 5 μM Dorsomorphin (D), for 1 hour or 24 hours and levels of the phosphorylated AMPK (pAMPK), phosphorylated ACC (pACC), phosphorylated Raptor (pRaptor) forms and HIF1α were determined by Western blot. Upper panel, representative Western blot of three different experiments. β-tubulin (β-Tub) serves as a loading control. Lower panel, densitometric analyses of bands represented as the mean of the ratio pAMPK/AMPK or pACC/ACC. (B) Cell viability monitored by MTT assay in PC-3 and LNCaP cells treated with vehicle, 25 µM and 50 μM compound 8c alone or in the presence of 5 μM Dorsomorphin or transfected with control siRNA (siC) or α1AMPK-selective siRNA (siAMPK). (C) LNCaP cells were treated with vehicle, 25 µM compound 8c, 25 µM compound 8c + 5 μM Dorsomorphin (8c + D) or 5 μM Dorsomorphin (D), for 24 hours and levels of Androgen Receptor (AR), Prostate specific antigen (PSA) and Prostate specific membrane antigen (PSMA) were determined by Western blot.Values were normalized with the control and represent the mean ± SD of at least three independent experiments. *p < 0.05 and **p < 0.01 compared to control and ^#p < 0.05 and ^##p < 0.01 compared with 8c-treated group by the Student’s t-test.
AMPK is a heterotrimeric protein composed by catalytic (α) and regulatory (β and γ) subunits. In mammals, different isoforms of α, β and γ subunits can associate to produce up to 12 AMPK different combinations. […]
Figure 6 Phosphorylation of AMPK and ACC in prostate cells transfected with selective AMPKα1 or AMPKα2 siRNA. […] Levels of the phosphorylated AMPK (pAMPK), phosphorylated ACC (pACC) and their total forms were determined by Western blot. […]
Cells were lysed in Lysis buffer (50 mM Tris pH 7.4, 0.8 M NaCl, 5 mM MgCl2, 0.1% Triton X-100) containing Protease Inhibitor and Phosphatase inhibitor Cocktails (Roche, Basel, Switzerland). Protein concentrations were measured by BioRad™ protein assay kit (Richmond, CA, USA). […]

LNCaP cells = assay: Cell cycle analysis by flow cytometry (Propidium Iodide), LNCaP; assay type: cell-based, human; settings: 24 h, 25 μM and 50 μM
Method: For that, we treated PC-3 and LNCaP cells with 25 μM and 50 μM of compound 8c for 24 h and performed cell cycle analysis by flow cytometry using Propidium Iodide (PI). […] It is worthy to note that when PC-3 cells were treated with compound 8c, 80% of cells were in subG0 phase (Fig. 4A).
Figure 4 Cell Cycle analysis in 8c-treated prostate cancer cells. (A) PC-3 and LNCaP cells were treated with compound 8c for 24 hours and cell cycle analysis was analyzed by flow cytometry using Propidium Iodide (PI). Percentage of cells in subG0, G1, S, and G2/M phases is indicated in the histogram. (B) Levels of Cyclin D1, p-p53, p53, p21 and cleaved Caspase 3 (17 kDa fragment) were determined by Western blot. Upper panel, representative Western blot of two different experiments. β-tubulin (β-Tub) serves as a loading control. Lower panel, the densitometric analyses of bands represented as the mean ± SD of the two different experiments. *p < 0.05 and **p < 0.01 compared with the control group by the Student’s t-test.
Flow cytometry was used to detect the distribution of cell cycle. After being cultivated with the treatment, 10^5 cells in 35 mm culture dish were harvested in 0.35% trypsin, collected and fixed with 70% cold ethanol at 4 °C for 1 h. Then, cells were centrifuged at 1500 g for 5 min and incubated in 0.5 ml PBS containing 0.1 mg/ml RNase for 30 min at 37 °C. […]

O=C1Nc2ccccc2C1(F)Cc1ccc(-c2ccccc2)o1 (stereo not shown) [Compound 8c, 3-fluoro-3-((5-phenylfuran-2-yl)methyl)indolin-2-one] was tested, and the “activation of AMPK at 24 hours” value (AMPK; PC-3 and LNCaP cells, 25 µM, 24 hours vs 1 hour) was “also seen at 24 hours, being even more robust that at 1 hour of treatment”, the “8c-induced AMPK phosphorylation with AMPKα1 subunit knocked down” value (AMPK; siRNA AMPKα1, 25 μM, 1 h) was “almost totally blocked” and the “AMPK and ACC phosphorylation with AMPKα2 subunit silenced” value (AMPK; siRNA AMPKα2, 25 μM, 1 h) was “still was able to phosphorylate AMPK and ACC at a similar level than in non-silenced (siC) cells”. For the same compound, the subG0 cells (LNCaP cells) was “increase in subG0 cells”.

— publication PMC5847527, “Identification of a novel 2-oxindole fluorinated derivative as in vivo antitumor agent for prostate cancer acting via AMPK activation” (Scientific Reports, 2018)
